Assay results reported in ChEMBL document CHEMBL5154793, “Discovery of Thieno[2,3-d]pyrimidine-based KRAS G12D inhibitors as potential anticancer agents via combinatorial virtual screening” (Eur J Med Chem, 2022).
pIC50: −log10 of the molar value. Calls of active or inactive are those of the source. No cut-off for these calls is given here.

What was measured:
CT26 [1] = experiment: Induction of apoptosis in mouse CT26 cells assessed as necrotic cells at 4 uM measured after 24 hrs by PI/Annexin V staining based flow cytometric analysis (reference value: 0.789%); assay type: functional
[2] = tested on: GTPase KRas (Homo sapiens), P01116 [G12D]; experiment: Binding affinity to human his-tagged KRAS G12D mutant assessed as gibbs free energy change by isothermal titration calorimetry
Chain of GTPase KRas (Homo sapiens), P01116 [G12D] (P01116 whole entry G12D, looked up): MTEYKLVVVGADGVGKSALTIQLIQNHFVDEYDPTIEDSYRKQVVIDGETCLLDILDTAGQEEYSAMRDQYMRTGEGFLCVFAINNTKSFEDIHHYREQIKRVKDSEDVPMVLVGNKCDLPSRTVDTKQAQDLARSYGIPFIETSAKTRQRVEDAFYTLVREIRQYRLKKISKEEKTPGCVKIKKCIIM

SW1990 [3] = experiment: Induction of apoptosis in human SW1990 cells assessed as viable cells at 8 uM measured after 24 hrs by PI/Annexin V staining based flow cytometric analysis (reference value: 82.9%); assay type: functional; settings: read-out: Activity
SW1990 [4] = experiment: Induction of apoptosis in human SW1990 cells assessed as late apoptotic cells at 8 uM measured after 24 hrs by PI/Annexin V staining based flow cytometric analysis (reference value: 3.75%); assay type: functional
[5] = Toxicity in BALB/c mouse allografted with mouse CT26 cells assessed as MPV level at 40 to 60 mg/kg, ip administered once a day for 10 days (reference value: 15 to 63 fL); assay type: organism-based; settings: in vivo, 240 h, dose 40-60 mg/kg, time 10 day
CT26 [6] = experiment: Antitumor activity against mouse CT26 cells allografted in BALB/c mouse assessed as tumor volume at 60 mg/kg, ip administered once a day for 10 days; assay type: functional; settings: time 10 day
[7] = Toxicity in BALB/c mouse allografted with mouse CT26 cells assessed as RDW-CV level at 40 to 60 mg/kg, ip administered once a day for 10 days (reference value: 13.3 to 23.8 %); assay type: organism-based; settings: in vivo, 240 h, dose 40-60 mg/kg, time 10 day
CT26 [8] = experiment: Inhibition of KRAS G12D mutant (unknown origin) downstream signalling in mouse CT26 cells assessed as suppression of Raf phosphorylation incubated for 24 hrs by pull down based Western blotting analysis; assay type: cell-based; settings: dose <= 16.0 µM, DDE = dose-dependent effect
CT26 [9] = experiment: Inhibition of GTP bound KRAS in mouse CT26 cells assessed as down regulation of KRAS-GTP protein level incubated for 12 hrs by Pull-Down based Western blotting analysis; assay type: functional, cell-based; settings: dose 10-20 µM, DDE = dose-dependent effect
CT26 [10] = experiment: Induction of apoptosis in mouse CT26 cells assessed as late apoptotic cells at 2 uM measured after 24 hrs by PI/Annexin V staining based flow cytometric analysis (reference value: 3.21%); assay type: functional
CT26 [11] = experiment: Induction of apoptosis in mouse CT26 cells assessed as late apoptotic cells at 8 uM measured after 24 hrs by PI/Annexin V staining based flow cytometric analysis (reference value: 3.21%); assay type: functional
SW1990 [12] = experiment: Induction of apoptosis in human SW1990 cells assessed as necrotic cells at 8 uM measured after 24 hrs by PI/Annexin V staining based flow cytometric analysis (reference value: 2.69%); assay type: functional
SW1990 [13] = experiment: Induction of apoptosis in human SW1990 cells assessed as viable cells at 2 uM measured after 24 hrs by PI/Annexin V staining based flow cytometric analysis (reference value: 82.9%); assay type: functional; settings: read-out: Activity
[14] = Toxicity in BALB/c mouse allografted with mouse CT26 cells assessed as eosinophil level at 40 to 60 mg/kg, ip administered once a day for 10 days (reference value: 16 to 17.3 %); assay type: organism-based; settings: in vivo, 240 h, dose 40-60 mg/kg, time 10 day
SW1990 [15] = experiment: Induction of apoptosis in human SW1990 cells assessed as early apoptotic cells at 8 uM measured after 24 hrs by PI/Annexin V staining based flow cytometric analysis (reference value: 10.7%); assay type: functional
CT26 [16] = experiment: Antitumor activity against mouse CT26 cells allografted in BALB/c mouse assessed as inhibition of tumor growth at 60 mg/kg, ip administered once a day for 10 days; assay type: functional; settings: CT26, 240 h, time 10 day, read-out: TGI
[17] = tested on: GTPase KRas (Homo sapiens), P01116 [G12D]; experiment: Binding affinity to human his-tagged KRAS G12D mutant assessed as change in entropy by isothermal titration calorimetry
SW1990 [18] = experiment: Induction of apoptosis in human SW1990 cells assessed as necrotic cells at 2 uM measured after 24 hrs by PI/Annexin V staining based flow cytometric analysis (reference value: 2.69%); assay type: functional
[19] = Toxicity in BALB/c mouse allografted with mouse CT26 cells assessed as PCT level at 40 to 60 mg/kg, ip administered once a day for 10 days (reference value: 0.226 to 6.4 %); assay type: organism-based; settings: in vivo, 240 h, dose 40-60 mg/kg, time 10 day
CT26 [20] = experiment: Induction of apoptosis in mouse CT26 cells assessed as early apoptotic cells at 8 uM measured after 24 hrs by PI/Annexin V staining based flow cytometric analysis (reference value: 11.2%); assay type: functional
CT26 [21] = experiment: In vivo inhibition of KRAS G12D mutant (unknown origin) mediated downstream signalling in mouse CT26 cells allografted in BALB/c mouse assessed as decrease in phosphorylation level of ErK in tumor tissue at 40 to 60 mg/kg, ip administered once a day for 10 days by Western blotting analysis; assay type: functional, organism-based; settings: dose 40-60 mg/kg, time 10.0 day
[22] = Toxicity in BALB/c mouse allografted with mouse CT26 cells assessed as basophil level at 40 to 60 mg/kg, ip administered once a day for 10 days (reference value: 0.050 to 40.3 10^9/L); assay type: organism-based; settings: in vivo, 240 h, dose 40-60 mg/kg, time 10 day
SW1990 [23] = experiment: Induction of apoptosis in human SW1990 cells assessed as early apoptotic cells at 4 uM measured after 24 hrs by PI/Annexin V staining based flow cytometric analysis (reference value: 10.7%); assay type: functional
CT26 [24] = experiment: Induction of apoptosis in mouse CT26 cells assessed as necrotic cells at 2 uM measured after 24 hrs by PI/Annexin V staining based flow cytometric analysis (reference value: 0.789%); assay type: functional
CT26 [25] = experiment: Antitumor activity against mouse CT26 cells allografted in BALB/c mouse assessed as tumor volume at 40 mg/kg, ip administered once a day for 10 days; assay type: functional; settings: time 10 day
CT26 [26] = experiment: Induction of apoptosis in mouse CT26 cells assessed as viable cells at 2 uM measured after 24 hrs by PI/Annexin V staining based flow cytometric analysis (reference value: 84.8%); assay type: functional; settings: read-out: Activity
SW1990 [27] = experiment: Induction of apoptosis in human SW1990 cells assessed as late apoptotic cells at 2 uM measured after 24 hrs by PI/Annexin V staining based flow cytometric analysis (reference value: 3.75%); assay type: functional
[28] = tested on: GTPase KRas (Homo sapiens), P01116 [G12D]; experiment: Inhibition of KRAS G12D mutant (unknown origin) downstream signalling in human SW1990 cells assessed as suppression of Raf phosphorylation incubated for 24 hrs by pull down based Western blotting analysis; assay type: cell-based; settings: dose <= 16.0 µM, DDE = dose-dependent effect
NCI-H358 = experiment: Antiproliferative activity against human NCI-H358 cells harboring KRAS G12C mutant assessed as inhibition of cell viability after 24 hrs by MTT assay; assay type: functional, cell-based; settings: NCI-H358, 24 h
CT26 [29] = experiment: Induction of apoptosis in mouse CT26 cells assessed as necrotic cells at 8 uM measured after 24 hrs by PI/Annexin V staining based flow cytometric analysis (reference value: 0.789%); assay type: functional
[30] = Toxicity in BALB/c mouse allografted with mouse CT26 cells assessed as MCV level at 40 to 60 mg/kg, ip administered once a day for 10 days (reference value: 16 to 47 fL); assay type: organism-based; settings: in vivo, 240 h, dose 40-60 mg/kg, time 10 day
[31] = target: GTPase KRas (Homo sapiens) (UniProt P01116); experiment: Inhibition of wild type KRAS (unknown origin) downstream signalling in human HCT-116 cells assessed as suppression of Raf phosphorylation incubated 24 hrs by pull down based Western blotting analysis; assay type: cell-based; settings: dose <= 8.0 µM, DDE = dose-dependent effect
Chain of GTPase KRas (Homo sapiens) (P01116 whole entry, looked up): as the sequence (P01116 whole entry G12D, looked up) above, with D12G counted along it

## COc1ccc(C(F)(F)F)cc1-c1cc2c(N3CC4CCC(C3)N4)ncnc2s1
CT26 [1]
  Activity: 3.87%
[2]
  deltaG: -10.2 kcal/mol
SW1990 [3]
  viability at 8 µM: 4.26%
SW1990 [4]
  Activity: 56.9%
[5]
  Activity: 6.2 fL
CT26 [6]
  Activity: 11%
[7]
  Activity: 14%
CT26 [8]
  Activity: Dde
CT26 [9]
  inhibition: Dde
CT26 [10]
  Activity: 4.59%
CT26 [11]
  Activity: 60.4%
SW1990 [12]
  Activity: 1.81%
SW1990 [13]
  viability at 2 µM: 74.4%
[14]
  Activity: 0.2%
SW1990 [15]
  Activity: 37.1%
CT26 [16]
  inhibition in vivo at 60 mg/kg: 53%
[17]
  -TdeltaS: 16.4 kcal/mol
SW1990 [18]
  Activity: 3.11%
[19]
  Activity: 0.372%
CT26 [20]
  Activity: 24.4%
CT26 [21]
  Activity: Active
[22]
  Activity: 0.01 10^9/L
SW1990 [23]
  Activity: 14.2%
CT26 [24]
  Activity: 1.39%
CT26 [25]
  Activity: 17%
CT26 [26]
  viability at 2 µM: 78.6%
SW1990 [27]
  Activity: 18.6%
[28]
  Activity: Dde
NCI-H358
  pIC50: 5.35
CT26 [29]
  Activity: 6.61%
[30]
  Activity: 16.1 fL
[31]
  Activity: Dde
